In patent US6359054B1, “Polynucleotide compositions for intramuscular administration” (priority 1994, dated 2002):
Where “and” joins values, the source holds several entries; their conditions need not be identical. Equal entries are not always repeated. {C11P} = undecylphosphate group; {Acr} = acridine conjugate

What was measured:
HSV-1 [1] = assay: HSV-1 infectivity of medium of infected BHK cells; type: cell-based, Herpes Simplex Virus 1; conditions: oligonucleotide 3.0 μM
HSV-1 [2] = tested on: HSV-1; set-up: species or system mice; conditions: mouse, in vivo

Q: How did the “HSV-1 infectious titre n = 7” value (HSV-1 [1]) turn out when “Free Anti-HSV: 12-chain oligonucleotide CGTTCCTCCTGU, 5′ undecylphosphate and 3′ acridine modified, complementary to HSV-1 splicing site (5' {C11P}, 3' {Acr}, sugars by position and backbone not given here)” was run?
A: 50(±14) × 10^2 CPE50/ml

Q: What about the “% Survival” value (HSV-1 [2]) of the same substance?
A: 7.0%

Q: What about the “Survived animals/Amount of Animals in a group” value (HSV-1 [2]) of the same substance?
A: 1/10 and 0/10
